System: dogs in hemorrhagic shock
Experiment: Treatment effect of polydatin drug compositions to dogs in hemorrhagic shock (Embodiment 20)
Format: in vivo, Beagle dogs

NCCc1ccc(O)c(O)c1 [dopamine]
average survival time (hour, x ± s) (3.0 mg/kg, continuous intravenous infusion 120 min, long-term survival calculated with 168 hours): 103.00 ± 89.01 h
survival rate (24 hours, 3.0 mg/kg): 3 number/5
survival rate (48 hours, 3.0 mg/kg): 3 number/5
survival rate (72 hours, 3.0 mg/kg): 3 number/5
pulse pressure difference (FIG. 2) (dogs in hemorrhagic shock, during and after infusion): increasing range is obviously lower than the polydatin groups

Reference: patent publication US20080261902A1, “Pharmaceutical composition containing polydatin and its application” (Shenzhen Neptunus Pharmaceutical Co., Ltd., priority 2005, published 2008)
